Peptide text beside a SMILES is read from it. * marks the point of attachment. Propanoyl(3-indol-3-yl) = O=C(CCc1c[nH]c2ccccc12)*; Butyryl(4-indol-3-yl) = O=C(CCCc1c[nH]c2ccccc12)*; X20 = O=C(c1cc(-c2ccncc2)n[nH]1)*; X45 = CC(=O)c1ccc(OCCCC(=O)*)cc1; X39 = O=C(C1CCC(c2ccccc2)CC1)*; X22 = O=C(C1CC(Cc2ccccc2)C1)*; X11 = O=C(CCCOc1ccc(Br)cc1)*; Pentanoyl = CCCCC(=O)*
What was measured:
PCSK9Δhelix = target: T1, PCSK9Δhelix (Homo sapiens, UniProt Q8NBP7); experiment: PCSK9Δhelix/Ab20 TR-FRET binding assay; settings: TR-FRET; Table 8E, additional compounds; read-out: PCSK9Δhelix/Ab20 IC50
T1 construct: Human PCSK9 construct M1-Q692 with an engineered TEV site (residue deletion Y166, R167); made in house; host or cells: CHO
T1 sequence (Q8NBP7 with tags, fused parts or gaps limits assumed): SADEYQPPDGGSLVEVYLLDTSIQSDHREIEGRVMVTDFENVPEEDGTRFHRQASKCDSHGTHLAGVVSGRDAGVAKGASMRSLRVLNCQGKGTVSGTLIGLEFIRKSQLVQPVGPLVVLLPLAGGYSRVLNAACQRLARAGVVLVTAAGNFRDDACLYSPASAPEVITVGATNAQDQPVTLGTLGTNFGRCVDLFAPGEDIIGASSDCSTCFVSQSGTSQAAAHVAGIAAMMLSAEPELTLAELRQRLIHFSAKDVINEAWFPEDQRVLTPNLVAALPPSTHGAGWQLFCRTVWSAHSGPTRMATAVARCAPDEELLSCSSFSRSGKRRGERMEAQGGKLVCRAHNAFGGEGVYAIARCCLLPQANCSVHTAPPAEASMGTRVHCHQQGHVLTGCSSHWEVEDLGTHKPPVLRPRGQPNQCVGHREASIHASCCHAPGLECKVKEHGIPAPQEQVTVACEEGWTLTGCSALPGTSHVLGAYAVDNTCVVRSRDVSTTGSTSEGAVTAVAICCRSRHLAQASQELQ
T1 sequence (Q8NBP7 31-152 partner limits assumed): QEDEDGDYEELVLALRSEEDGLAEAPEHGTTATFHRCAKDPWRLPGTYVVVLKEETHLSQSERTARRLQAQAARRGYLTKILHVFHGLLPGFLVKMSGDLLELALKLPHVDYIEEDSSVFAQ

PCSK9 = PCSK9 (Homo sapiens, UniProt Q8NBP7); experiment: PCSK9/EGF(A) TR-FRET binding assay; settings: TR-FRET; Table 8E, additional compounds; read-out: PCSK9/EGF(A) IC50
Chain of PCSK9 (Q8NBP7 153-692): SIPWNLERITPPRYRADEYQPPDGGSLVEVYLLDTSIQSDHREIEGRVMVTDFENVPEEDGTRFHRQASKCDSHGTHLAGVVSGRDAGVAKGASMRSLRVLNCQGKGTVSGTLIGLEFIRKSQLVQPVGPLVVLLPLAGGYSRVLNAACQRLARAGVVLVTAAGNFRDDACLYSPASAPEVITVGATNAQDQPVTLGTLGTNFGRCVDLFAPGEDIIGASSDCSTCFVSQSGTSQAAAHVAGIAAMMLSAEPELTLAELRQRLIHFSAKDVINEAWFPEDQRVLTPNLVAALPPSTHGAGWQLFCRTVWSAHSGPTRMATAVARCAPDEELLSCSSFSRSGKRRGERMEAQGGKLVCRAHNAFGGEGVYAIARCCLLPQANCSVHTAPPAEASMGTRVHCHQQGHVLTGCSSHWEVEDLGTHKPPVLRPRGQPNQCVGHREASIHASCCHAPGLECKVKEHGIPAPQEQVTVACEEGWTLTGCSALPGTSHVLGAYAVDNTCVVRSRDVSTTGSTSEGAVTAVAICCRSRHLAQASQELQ
Chain of PCSK9 (Q8NBP7 31-152 partner limits assumed): as the sequence (Q8NBP7 31-152 partner limits assumed) above

Row | SMILES | IC50 (PCSK9Δhelix) [µM] | IC50 (PCSK9) [µM]
1 | CCCCC(=O)N[C@@H](Cc1c[nH]c2ccccc12)C(=O)N[C@@H](CC(N)=O)C(=O)N[C@@H](CC(C)C)C(=O)N[C@H](C(=O)N[C@@H](CCCNC(=N)N)C(=O)N[C@H](C(=O)NCC(=O)N[C@@H](CC(C)C)C(=O)N[C@@H](CO)C(=O)N[C@@H](CCCNC(=N)N)C(N)=O)[C@@H](C)CC)C(C)C [Compound 181] (Pentanoyl-WNLVRIGLSR-NH2) | 8.9 | ≥ 50
2 | CC[C@H](C)[C@H](NC(=O)[C@H](CCCNC(=N)N)NC(=O)[C@@H](NC(=O)[C@H](CC(C)C)NC(=O)[C@H](CC(N)=O)NC(=O)[C@H](Cc1c[nH]c2ccccc12)NC(=O)CCCOc1ccc(Br)cc1)C(C)C)C(=O)NCC(=O)N[C@@H](CC(C)C)C(=O)N[C@H](C(=O)N[C@@H](CCCNC(=N)N)C(N)=O)[C@@H](C)O [Compound 182] (X11-WNLVRIGLTR-NH2) | 4 | 14
3 | CC[C@H](C)[C@H](NC(=O)[C@H](CCCNC(=N)N)NC(=O)[C@@H](NC(=O)[C@H](CC(C)C)NC(=O)[C@H](CC(N)=O)NC(=O)[C@H](Cc1c[nH]c2ccccc12)NC(=O)CCCOc1ccc(C(C)=O)cc1)C(C)C)C(=O)NCC(=O)N[C@@H](CC(C)C)C(=O)N[C@H](C(=O)N[C@@H](CCCNC(=N)N)C(N)=O)[C@@H](C)O [Compound 183] (X45-WNLVRIGLTR-NH2) | 2.5 | 18
4 | CC[C@H](C)[C@H](NC(=O)[C@H](CCCNC(=N)N)NC(=O)[C@@H](NC(=O)[C@H](CC(C)C)NC(=O)[C@H](CC(N)=O)NC(=O)[C@H](Cc1c[nH]c2ccccc12)NC(=O)C1CC(Cc2ccccc2)C1)C(C)C)C(=O)NCC(=O)N[C@@H](CC(C)C)C(=O)N[C@H](C(=O)N[C@@H](CCCNC(=N)N)C(N)=O)[C@@H](C)O (stereo partly shown) [Compound 184] (X22-WNLVRIGLTR-NH2) | 12 | 19
5 | CC[C@H](C)[C@H](NC(=O)[C@H](CCCNC(=N)N)NC(=O)[C@@H](NC(=O)[C@H](CC(C)C)NC(=O)[C@H](CC(N)=O)NC(=O)[C@H](Cc1c[nH]c2ccccc12)NC(=O)C1CCC(c2ccccc2)CC1)C(C)C)C(=O)NCC(=O)N[C@@H](CC(C)C)C(=O)N[C@H](C(=O)N[C@@H](CCCNC(=N)N)C(N)=O)[C@@H](C)O (stereo partly shown) [Compound 185] (X39-WNLVRIGLTR-NH2) | 0.39 | 5.7
6 | CC[C@H](C)[C@H](NC(=O)[C@H](CCCNC(=N)N)NC(=O)[C@@H](NC(=O)[C@H](CC(C)C)NC(=O)[C@H](CC(N)=O)NC(=O)[C@H](Cc1c[nH]c2ccccc12)NC(=O)c1cc(-c2ccncc2)n[nH]1)C(C)C)C(=O)NCC(=O)N[C@@H](CC(C)C)C(=O)N[C@H](C(=O)N[C@@H](CCCNC(=N)N)C(N)=O)[C@@H](C)O [Compound 188] (X20-WNLVRIGLTR-NH2) | 7.6 | 22
7 | CC[C@H](C)[C@H](NC(=O)[C@H](CCCNC(=N)N)NC(=O)[C@@H](NC(=O)[C@H](CC(C)C)NC(=O)[C@H](CC(N)=O)NC(=O)[C@H](Cc1c[nH]c2ccccc12)NC(=O)CCc1c[nH]c2ccccc12)C(C)C)C(=O)NCC(=O)N[C@@H](CC(C)C)C(=O)N[C@H](C(=O)N[C@@H](CCCNC(=N)N)C(N)=O)[C@@H](C)O [Compound 189] ({Propanoyl(3-indol-3-yl)}-WNLVRIGLTR-NH2) | 12 | 38
8 | CC[C@H](C)[C@H](NC(=O)[C@H](CCCNC(=N)N)NC(=O)[C@@H](NC(=O)[C@H](CC(C)C)NC(=O)[C@H](CC(N)=O)NC(=O)[C@H](Cc1c[nH]c2ccccc12)NC(=O)CCCc1c[nH]c2ccccc12)C(C)C)C(=O)NCC(=O)N[C@@H](CC(C)C)C(=O)N[C@H](C(=O)N[C@@H](CCCNC(=N)N)C(N)=O)[C@@H](C)O [Compound 190] ({Butyryl(4-indol-3-yl)}-WNLVRIGLTR-NH2) | 7 | 30

Reference: patent US11034725B2, “Compositions and methods for treating cardiovascular disease” (Genentech, Inc., priority 2016, dated 2021)
